# Results: patent US8937064B2, “Pyrazolo[1,5-a]pyrimidines useful as JAK2 inhibitors” (Vertex Pharmaceuticals Incorporated, priority 2007, dated 2015)
# Assays:
# JAK-2 enzyme = JAK-2 enzyme (Homo sapiens, UniProt O60674); test: JAK2 Inhibition Assay
# Protocol: Reactions were carried out in a kinase buffer containing 100 mM HEPES (pH 7.4), 1 mM DTT, 10 mM MgCl2, 25 mM NaCl, and 0.01% BSA. Substrate concentrations in the assay were 5 μM ATP (200 uCi/μmole ATP) and 1 μM poly(Glu)4Tyr. Reactions were carried out at 25° C. and 1 nM JAK3.
# To each well of a 96 well polycarbonate plate was added 1.5 μl of a candidate JAK3 inhibitor along with 50 μl of kinase buffer containing 2 μM poly(Glu)4Tyr and 10 μM ATP. This was then mixed and 50 μl of kinase buffer containing 2 nM JAK3 enzyme was added to start the reaction. After 20 minutes at room temperature (25° C.), the reaction was stopped with 50 μl of 20% trichloroacetic acid (TCA) that also contained 0.4 mM ATP. The entire contents of each well were then transferred to a 96 well glass fiber filter plate using a TomTek Cell Harvester. After washing, 60 μl of scintillation fluid was added and ^33P incorporation detected on a Perkin Elmer TopCount.
# JAK3 = molecular target: T1, JAK3 (Homo sapiens, UniProt P52333); test: JAK3 Inhibition Assay; format: biochemical; details: 1 nM JAK3, 1 μM poly(Glu)4Tyr, 5 μM ATP, 25° C., 33P incorporation
# T1 sequence (P52333 1-1124): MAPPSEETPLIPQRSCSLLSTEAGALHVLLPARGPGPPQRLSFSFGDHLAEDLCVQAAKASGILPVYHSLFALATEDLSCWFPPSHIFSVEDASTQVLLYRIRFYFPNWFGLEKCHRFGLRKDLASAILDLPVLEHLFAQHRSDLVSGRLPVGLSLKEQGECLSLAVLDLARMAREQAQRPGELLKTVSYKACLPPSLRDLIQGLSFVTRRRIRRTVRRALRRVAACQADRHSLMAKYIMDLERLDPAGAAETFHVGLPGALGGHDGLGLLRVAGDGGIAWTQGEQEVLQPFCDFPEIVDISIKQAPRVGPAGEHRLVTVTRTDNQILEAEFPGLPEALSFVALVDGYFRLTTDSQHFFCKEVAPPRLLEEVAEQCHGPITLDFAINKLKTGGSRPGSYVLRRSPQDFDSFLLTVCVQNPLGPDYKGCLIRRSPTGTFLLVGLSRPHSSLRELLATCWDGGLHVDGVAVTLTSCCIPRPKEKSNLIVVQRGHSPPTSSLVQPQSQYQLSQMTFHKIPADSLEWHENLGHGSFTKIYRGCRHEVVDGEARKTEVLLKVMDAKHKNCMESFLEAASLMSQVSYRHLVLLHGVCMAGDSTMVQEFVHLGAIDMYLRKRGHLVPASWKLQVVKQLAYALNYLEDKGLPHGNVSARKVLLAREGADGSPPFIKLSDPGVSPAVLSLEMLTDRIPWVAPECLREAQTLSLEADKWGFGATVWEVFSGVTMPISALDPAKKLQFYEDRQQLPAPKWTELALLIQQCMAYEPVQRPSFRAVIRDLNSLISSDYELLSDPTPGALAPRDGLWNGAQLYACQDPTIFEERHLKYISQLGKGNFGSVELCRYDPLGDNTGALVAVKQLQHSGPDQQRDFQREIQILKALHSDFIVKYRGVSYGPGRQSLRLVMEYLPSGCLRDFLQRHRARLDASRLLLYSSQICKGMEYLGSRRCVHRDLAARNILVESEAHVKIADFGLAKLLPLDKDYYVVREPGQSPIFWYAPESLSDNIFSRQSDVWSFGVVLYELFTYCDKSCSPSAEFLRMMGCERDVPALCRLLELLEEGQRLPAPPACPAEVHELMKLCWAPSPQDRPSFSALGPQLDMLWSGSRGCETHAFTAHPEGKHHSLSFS
# Sequence of JAK-2 enzyme (O60674 whole entry): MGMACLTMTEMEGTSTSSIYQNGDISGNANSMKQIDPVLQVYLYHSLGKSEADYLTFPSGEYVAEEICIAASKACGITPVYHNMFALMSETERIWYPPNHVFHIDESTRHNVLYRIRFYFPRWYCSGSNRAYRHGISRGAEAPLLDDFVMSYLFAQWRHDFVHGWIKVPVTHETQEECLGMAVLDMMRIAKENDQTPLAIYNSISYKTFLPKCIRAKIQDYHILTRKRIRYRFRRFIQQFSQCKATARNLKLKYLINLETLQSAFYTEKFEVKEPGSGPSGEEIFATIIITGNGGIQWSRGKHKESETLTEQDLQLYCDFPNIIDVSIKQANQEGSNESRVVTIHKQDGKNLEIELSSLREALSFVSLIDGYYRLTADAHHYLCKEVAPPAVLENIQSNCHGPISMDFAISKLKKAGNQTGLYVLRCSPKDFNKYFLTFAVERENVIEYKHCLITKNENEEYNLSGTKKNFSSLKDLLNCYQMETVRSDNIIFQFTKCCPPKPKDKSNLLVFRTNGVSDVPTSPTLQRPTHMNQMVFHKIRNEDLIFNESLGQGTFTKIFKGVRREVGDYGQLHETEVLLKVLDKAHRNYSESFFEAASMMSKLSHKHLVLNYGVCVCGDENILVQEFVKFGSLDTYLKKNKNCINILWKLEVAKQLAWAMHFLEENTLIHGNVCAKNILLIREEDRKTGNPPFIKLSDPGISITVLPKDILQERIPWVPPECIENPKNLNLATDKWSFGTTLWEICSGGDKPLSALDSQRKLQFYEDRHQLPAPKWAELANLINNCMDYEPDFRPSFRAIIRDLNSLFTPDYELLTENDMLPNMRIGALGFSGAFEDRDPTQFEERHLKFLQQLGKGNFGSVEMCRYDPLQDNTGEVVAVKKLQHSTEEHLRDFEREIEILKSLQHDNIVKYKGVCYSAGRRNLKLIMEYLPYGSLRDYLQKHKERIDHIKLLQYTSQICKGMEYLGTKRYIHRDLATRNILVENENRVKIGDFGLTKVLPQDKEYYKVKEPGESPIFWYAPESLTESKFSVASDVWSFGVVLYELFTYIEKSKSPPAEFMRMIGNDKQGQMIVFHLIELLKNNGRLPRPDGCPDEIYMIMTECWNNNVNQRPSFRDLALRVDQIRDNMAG
SMILES,Ki (JAK-2 enzyme),Ki (JAK3)
C[C@H](Nc1cc(-c2c(N)nn3cccnc23)nc(OCC2CC2)n1)c1ccc(F)cc1 [Compound 166],< 10 nM,10 to 100 nM
CC[C@H](Nc1cc(-c2cnn3cccnc23)ncn1)c1ccc(F)c(F)c1 [Compound 145],< 10 nM,10 to 100 nM
CC(C)[C@@H](Nc1cc(-c2c(N)nn3cccnc23)nc(N2CCOCC2)n1)c1ccc(F)cc1F [Compound 104],100 to 500 nM,500 to 5000 nM
C=C(C)COc1nc(N[C@@H](C)c2ccc(F)cc2)cc(-c2c(N)nn3cccnc23)n1 [Compound 175],< 10 nM,100 to 500 nM
CCC[C@@H](Nc1cc(-c2c(N)nn3cccnc23)ncn1)c1ccc(F)c(F)c1 [Compound 97],10 to 100 nM,100 to 500 nM
Cc1ccn2nc(N)c(-c3cc(N[C@@H](C)c4ccc(F)cc4)ncn3)c2n1 [Compound 95],< 10 nM,10 to 100 nM
CC1CC1COc1nc(N[C@@H](C)c2ccc(F)cc2F)cc(-c2cnn3cccnc23)n1 (stereo partly drawn) [Compound 214],< 10 nM,100 to 500 nM
C[C@H](Nc1cc(-c2cnn3cccnc23)nc(OC2CCNC2)n1)c1ccc(F)cc1F (stereo partly drawn) [Compound 218],10 to 100 nM,100 to 500 nM
C[C@H](Nc1cc(-c2c(N)nn3cccnc23)nc(S(C)(=O)=O)n1)c1ccc(F)cc1F [Compound 111],< 10 nM,< 10 nM
C[C@H](Nc1cc(-c2c(N)nn3cccnc23)nc(OC[C@H]2CO2)n1)c1ccc(F)cc1 [Compound 159],< 10 nM,100 to 500 nM
CC(C)OCCOc1nc(N[C@@H](C)c2ccc(F)cc2)cc(-c2c(N)nn3cccnc23)n1 [Compound 149],< 10 nM,10 to 100 nM
C[C@H](Nc1cc(-c2c(N)nn3cccnc23)nc(OCC2CCCC2)n1)c1ccc(F)cc1 [Compound 176],10 to 100 nM,100 to 500 nM
CCC[C@H](Nc1cc(-c2cnn3cccnc23)ncn1)c1ccc(F)cc1 [Compound 116],< 10 nM,10 to 100 nM
COc1cc2c(cc1OC)CN(c1cc(-c3c(N)nn4cccnc34)ncn1)CC2 [Compound 35],100 to 500 nM,100 to 500 nM
Nc1nn2cccnc2c1-c1cc(N[C@H]2CCCc3ccccc32)ncn1 [Compound 76],10 to 100 nM,100 to 500 nM
CCC(C#N)Oc1nc(N[C@@H](C)c2ccc(F)cc2F)cc(-c2cnn3cccnc23)n1 (stereo partly drawn) [Compound 192],< 10 nM,10 to 100 nM
COCCN(C)c1nc(N[C@@H](C)c2ccc(F)cc2F)cc(-c2c(N)nn3cccnc23)n1 [Compound 133],10 to 100 nM,100 to 500 nM
COC(C)(C)CCOc1nc(N[C@@H](C)c2ccc(F)cc2F)cc(-c2cnn3cccnc23)n1 [Compound 194],10 to 100 nM,100 to 500 nM
